Laboratory results taken from article PMC8761492 (Life Science Alliance, 2022).
Starred links: 1 amine or outer side, 2 acyl side, 3 side chain; linkers in the order of their positions; H or OH if unused. Positions of bridges follow the written chain, without caps; N, C: chain ends. Non-standard residues stand in square brackets, D forms with d. Residues, ends and D or L forms follow the SMILES beside them. *: point of attachment. X1 = CC[C@H](C)[C@@H](N[*:1])[C@@H](O)CC(=O)O[C@H](C(=O)[C@H](C)C(=O)[*:2])C(C)C; NMeY = CN[C@@H](Cc1ccc(O)cc1)C(=O)O; dNMeL = CN[C@H](CC(C)C)C(=O)O; Pyruvoyl = CC(=O)C(=O)*

Tests used:
[1] = test system: SARS-CoV-2 (βCoV/KOR/KCDC03/2020); assay: microbe, parasite or virus in culture; type: cell-based; details: Severe acute respiratory syndrome coronavirus 2, Vero
[2] = APLICOV-PC: safety, adverse events and laboratory abnormalities; type: in vivo, human
Description: The plitidepsin clinical proof-of-concept study (APLICOV-PC, APL-D-002-20; EudraCT #2020-001993-31; NCT04382066) was a multicenter, randomized, parallel, open-label, proof-of-concept clinical trial, exploring three dose levels of plitidepsin (1.5, 2.0, and 2.5 mg/day, flat doses) for 3 consecutive days, as a 90-min i.v. infusion, in adult patients with COVID-19 who required hospitalization. The study was conducted in 10 hospital centers in Spain between 12 May 2020 and 26 November 2020. Presented data reflect all analyses completed by the cut-off date of 10 December 2020. The research was performed in accordance with good clinical practice guidelines and adhered to the tenets of the Declaration of Helsinki. The study protocol is available in Supplemental Data 1. Supplemental Data 2 summarizes the protocol amendments as well as post hoc analyses that were performed.
Adult (aged ≥18 yr) hospitalized patients with a positive SARS-CoV-2 infection confirmed by real-time RT-PCR testing of a nasopharyngeal exudate or the lower respiratory tract were eligible for inclusion in this study. Despite the eligibility of patients with samples from the lower respiratory tract, all patients reported here had only nasopharyngeal swab samples. Included patients must have had the onset of SARS-CoV-2 infection symptoms no more than 10 d before initiating the study. […] Women and men with partners of childbearing potential agreed to take effective contraception while on study and for 6 mo after the last dose of plitidepsin. All included patients provided written informed consent before the initiation of the study.
Key exclusion criteria included participation in another COVID-19–related clinical trial; receiving antivirals, chloroquine or derivatives, IL-6 receptor inhibitors, or immunomodulatory drugs for treatment of COVID-19; or requiring mechanical ventilation support at enrollment. Patients were also excluded for evidence of multi-organ failure, clinically relevant heart disease, clinically relevant arrhythmia or history of QTc interval prolongation, or neuropathy ≥ grade 2. Full exclusion criteria can be found in Supplemental Data 1.
Randomization was done through registration in the study’s electronic case report form. The system assigned a unique randomization number for each patient. Patients were enrolled sequentially and allocated by block randomization into the three dose groups (1.5, 2.0, and 2.5 mg plitidepsin) up to an initial sample size of nine patients per group. To ensure safety, the first three patients in the 2.0 mg group could not be enrolled until the first three patients in the 1.5 mg cohort had successfully completed Day 15 assessments (12 d after completing plitidepsin dosing); similarly, the first three patients in the 2.5 mg cohort could be not enrolled until the first three patients in the 2.0 mg cohort had successfully completed Day 15 assessments (12 d after completing plitidepsin dosing). Finally, three patients had to be treated in the 2.5 mg cohort to complete the accrual of nine patients per cohort. When multiple dose levels were open for enrollment, patients were randomized 1:1 or 1:1:1 as appropriate (Fig 4). After an interim safety analysis, a protocol amendment was approved to subsequently expand the accrual up to 45 patients (six additional patients per dose group).
Enrolled patients received plitidepsin administered as an i.v. infusion over 90 min on days 1, 2, and 3 at dose levels of 1.5, 2.0, and 2.5 mg. A single batch (Lot 16D19) was administered to all patients. All patients also received, 20–30 min before the infusion of plitidepsin (i.e., on days 1–3), a premedication regimen consisting in: diphenhydramine 25 mg i.v., ranitidine 50 mg i.v., and dexamethasone 8 mg orally. […]

[3] = Post-amendment (n = 36), Grade 1
[4] = Post-amendment (n = 36), Grade 2
[5] = after the premedication amendment
[6] = before the premedication amendment

For CC[C@H](C)[C@H]1NC(=O)[C@@H](NC(=O)[C@@H](CC(C)C)N(C)C(=O)[C@@H]2CCCN2C(=O)C(C)=O)[C@@H](C)OC(=O)[C@H](Cc2ccc(OC)cc2)N(C)C(=O)[C@@H]2CCCN2C(=O)[C@H](CC(C)C)NC(=O)[C@@H](C)C(=O)[C@H](C(C)C)OC(=O)C[C@@H]1O [Plitidepsin] (Pyruvoyl-P[dNMeL]T[X1]LP[NMeY](Me); ester 3-C), the IC50 ([1]; Boryung Pharmaceuticals) was 3.26 nM, the IC90 ([1]; estimated from IC50 and Hill slope) was 9.38 nM and the “prevalence of grade 3–4 AEs” value ([2]; 1.5 mg cohort) was 33.3%. The “prevalence of grade 3–4 AEs” value ([2]; 2.0 mg cohort) was 20.0%, the “prevalence of grade 3–4 AEs” value ([2]; 2.5 mg cohort) was 40.0% and the “patients with Grade 1 increase in CPK” value ([2]; 3 of 37 with normal baseline values) was 8.1%. The “patients whose platelet counts normalized” value ([2]; 5 of 12 with Grade 1 thrombocytopenia at entry) was 41.7%, the patients with hyperglycemia ([2]; 8 of 45, none considered related to plitidepsin) was 18% and the “patients with elevation of AST” value ([2]; 13 of 44, regardless of causality) was 30%. The “patients with elevation of ALT” value ([2]; 29 of 44, regardless of causality) was 66%, the “hypersensitivity reactions after changes to premedication” value ([2]; 36 patients, 108 infusions) was “No new hypersensitivity reactions” and the “serious adverse event considered related to the study drug” value ([2]; Grade 3 hypersensitivity reaction, one event) was 2.2 % subjects. For the same molecule, the Abdominal pain [2, 3] was 2 (5.6%) N (%), the Anorexia [2, 3] was 1 (2.8%) N (%) and the Asthenia [2, 3] was 1 (2.8%) N (%). The Chest discomfort [2, 3] was 1 (2.8%) N (%), the Diarrhea [2, 3] was 1 (2.8%) N (%) and the Dizziness [2, 3] was 2 (5.6%) N (%). The Dysgeusia [2, 3] was 2 (5.6%) N (%), the Dyspepsia [2, 3] was 2 (5.6%) N (%) and the Dysthermia [2, 3] was 1 (2.8%) N (%). For the same molecule, the Nausea [2, 3] was 11 (30.6%) N (%), the Temperature regulation disorder [2, 3] was 1 (2.8%) N (%) and the Vomiting [2, 3] was 3 (8.3%) N (%). The Amylase increased [2, 4] was 1 (2.8%) N (%), the Asthenia [2, 4] was 1 (2.8%) N (%) and the Decreased appetite [2, 4] was 1 (2.8%) N (%). The Diarrhea [2, 4] was 1 (2.8%) N (%), the Lipase increased [2, 4] was 1 (2.8%) N (%) and the Nausea [2, 4] was 3 (8.3%) N (%). For the same molecule, the Vomiting [2, 4] was 2 (5.6%) N (%), the Diarrhea ([2]; Post-amendment (n = 36), Grade 3) was 1 (2.8%) N (%) and the Nausea ([2]; Pre-amendment (n = 9), Grade 1) was 3 (33.3%) N (%). The Vomiting ([2]; Pre-amendment (n = 9), Grade 1) was 2 (22.2%) N (%), the Nausea ([2]; Pre-amendment (n = 9), Grade 2) was 2 (22.2%) N (%) and the Anaphylactic reaction ([2]; Pre-amendment (n = 9), Grade 3) was 1 (11.1%) N (%). The “proportion of patients with nausea” value [2, 5] was 38.9%, the “proportion of patients with vomiting” value [2, 5] was 13.9% and the “Grade 4 AEs” value ([2]; all doses) was “No Grade 4 AEs were reported”. The hemotoxicity ([2]; all doses) was “did not show signs of clinically relevant hemotoxicity”, the “patients with treatment related adverse events” value ([2]; all doses, 25 patients) was 55.5% and the “patients with one or more adverse events” value ([2]; all doses, 44 of 45) was 97.8%. It also gave a treatment-related abdominal pain ([2]; all doses, 45 treated patients) of 4.4%, a treatment-related diarrhea ([2]; all doses, 45 treated patients) of 6.7% and a treatment-related dizziness ([2]; all doses, 45 treated patients) of 4.4%. It also gave a treatment-related dysgeusia ([2]; all doses, 45 treated patients) of 4.4%, a treatment-related nausea ([2]; all doses, 45 treated patients) of 42.2% and a treatment-related vomiting ([2]; all doses, 45 treated patients) of 15.6%. For the same molecule, the “patients with at least one Grade ≥ 3 AE regardless of causality” value ([2]; all doses, NCI-CTCAE v5) was 31%, the “number of Grade 3 AEs attributed to plitidepsin” value ([2]; anaphylactic reaction at 1.5 mg/day and diarrhea at 2.5 mg/day) was “Two” and the “proportion of patients with nausea” value [2, 6] was 55.6%. The “proportion of patients with vomiting” value [2, 6] was 22.2%, the “patients whose CPK values decreased on study” value ([2]; four of five with Grade 1–2 elevation at entry) was 80% and the “patients who died (COVID-19-related)” value ([2]; three of 45 treated patients, days 22, 30 and 57) was 6.7%.
